Data on two molecules can be found in patent EP0229011A1, “Trisubstituted triazoles” (CIBA-GEIGY AG, priority 1986, dated 1987).

Experiment [1] deals with durch Aluminiumoxidimplantation erzeugten fokalen Konvulsionen. Put plainly: Focal convulsions produced by aluminium oxide implantation in the rhesus monkey. Type of experiment: in vivo, Rhesusaffen. The note with it: daily doses of 50 mg/kg p.o., over the whole 15-day treatment. From the text: (§1) Die neuen Verbindungen besitzen wertvolle pharmakologische Eigenschaften, insbesondere eine ausgeprägte antikonvulsive Wirksamkeit mit neuartigem Wirkungsspektrum. Die ausgezeichnete antikonvulsive Wirksamkeit der erfindungsgemäss bereitgestellten Verbindungen zeigt sich insbesondere an Primaten. […] Das neuartige Wirkungsspektrum der erfindungsgemässen Verbindungen kann beispielsweise durch ihr Verhalten in den nachstehenden pharmakologischen und biochemischen Epilepsiemodellen charakterisiert werden: • 1) Schutzwirkung gegen Elektroschock-induzierte Konvulsionen (Maus, Ratte): deutliche Aktivität in Dosen ab etwa 30 mg/kg p.o., für z.B. 5-Amino-1-(4-hexyl)-1M-1,2,3-triazol-4-carboxamid ED₅₀ = 100 mg/kg p.o. (Maus) bzw. […] Wirkung auf die GABA-Neuro-transmission und kein nachweisbarer Einfluss auf den GABA-Kata-bolismus; • 6) Kindling-Epilepsiemodell (Ratte): die Entwicklung sowohl der Nachentladung als auch der Symptomatologie wird stark verlangsamt.

A further experiment deals with Metrazol-Antagonismus. Put plainly: Metrazol antagonism in the mouse. Type of experiment: in vivo. The note with it: po, Maus, read-out: ED₅₀.
Text: as §1

Experiment [2] has as its system Elektroschock-induzierte Konvulsionen. Put plainly: Protection against electroshock-induced convulsions (rat). It counts as in vivo. The note with it: po, Ratte, read-out: ED₅₀.
Text: as §1

The test system of experiment [3] is Picrotoxin-induzierte Konvulsionen. Briefly: Protection against picrotoxin-induced convulsions. Type of experiment: in vivo. The following applies: Maus, doses up to and including 300 mg/kg p.o.
Text: as §1

Experiment [4] has as its system Elektroschock-induzierte Konvulsionen. Briefly: Protection against electroshock-induced convulsions (mouse). It counts as in vivo. The following applies: po, Maus, read-out: ED₅₀.
Text: as §1

Experiment [5] deals with experimentellen Strychninkrampf. Put plainly: Protection against experimental strychnine convulsions. It counts as in vivo, Maus. The note with it: Mus musculus, po, read-out: ED₅₀.
Text: as §1

Take `CCCC(CCC)n1nnc(C(N)=O)c1N` [Beispiel 1, 5-Amino-1-(4-heptyl)-1H-1,2,3-triazol-4-carboxamid]: in experiment [1], the “Anzahl der fokalen Konvulsionen” value is “starke Abnahme” and the “Intensität der fokalen Konvulsionen” value is given as “starke Abnahme”.

For `CCCC(CC)n1nnc(C(N)=O)c1N` (stereo not shown) [5-Amino-1-(4-hexyl)-1H-1,2,3-triazol-4-carboxamid], the ED50 with Metrazol-Antagonismus was found to be 210 mg/kg; in experiment [2] it was 50 mg/kg; in experiment [4] it was 100 mg/kg; in experiment [5] it was 300 mg/kg. In experiment [3], the “Schutzwirkung gegen Picrotoxin-induzierte Konvulsionen” value was “keine Wirkung feststellbar”.
